BindingDB's records for patent US20250026750 (Chia Tai Tianqing Pharmaceutical Group, 2025)

Target: Serine/threonine-protein kinase ATR (Homo sapiens, UniProt Q13535)
Experiment: In Vitro Inhibitory Activity Against ATR Kinase
Method: A 50 ng/μL ATR stock solution was diluted with a kinase buffer (50 mM HEPES, 10 mM MgCl2, 2 mM DTT, 1 mM EGTA, 0.01% Tween 20), and 6 μL of 1.67×, 0.0835 ng/μL working solution was added to each well (final concentration: 0.05 ng/μL). Different compounds dissolved in DMSO were added to wells using a nanoliter pipettor, such that the final concentrations of the compounds were 1000 nM-0.24 nM and the concentrations in positive wells were 100 nM-0.024 nM (4-fold gradient, 7 concentrations in total). Meanwhile, a blank control well (containing no enzyme) and a negative control well (containing enzyme, with the vehicle DMSO added) were set. After the enzyme had reacted with the compound or vehicle for 30 min, a 5×, 50 μM ATP (final concentration: 10 μM) prepared with the kinase buffer and a 5×, 0.5 μM substrate (final concentration: 0.1 μM, U Light-poly GT) were 1:1 mixed, and the mixture was added to wells at 4 μL/well. After the plate was sealed with a sealing film and the plate was incubated at room temperature for 2 h, 5 μL of 4×, 40 mM EDTA (final concentration: 10 mM) was added to each well. After 5 min of incubation at room temperature, 5 μL of a 4×, 8 nM assay reagent (final concentration: 2 nM, Ep-anti-phospho-tyrosine antibody) was added to each well. The plate was incubated at room temperature for 1 h. Plate reading was performed on a PE instrument (excitation: 320 or 340 nm; emission: 665 nm), and four-parameter fitting and IC50 calculations were performed.

Serine/threonine-protein kinase ATR, sequence (Q13535 whole entry): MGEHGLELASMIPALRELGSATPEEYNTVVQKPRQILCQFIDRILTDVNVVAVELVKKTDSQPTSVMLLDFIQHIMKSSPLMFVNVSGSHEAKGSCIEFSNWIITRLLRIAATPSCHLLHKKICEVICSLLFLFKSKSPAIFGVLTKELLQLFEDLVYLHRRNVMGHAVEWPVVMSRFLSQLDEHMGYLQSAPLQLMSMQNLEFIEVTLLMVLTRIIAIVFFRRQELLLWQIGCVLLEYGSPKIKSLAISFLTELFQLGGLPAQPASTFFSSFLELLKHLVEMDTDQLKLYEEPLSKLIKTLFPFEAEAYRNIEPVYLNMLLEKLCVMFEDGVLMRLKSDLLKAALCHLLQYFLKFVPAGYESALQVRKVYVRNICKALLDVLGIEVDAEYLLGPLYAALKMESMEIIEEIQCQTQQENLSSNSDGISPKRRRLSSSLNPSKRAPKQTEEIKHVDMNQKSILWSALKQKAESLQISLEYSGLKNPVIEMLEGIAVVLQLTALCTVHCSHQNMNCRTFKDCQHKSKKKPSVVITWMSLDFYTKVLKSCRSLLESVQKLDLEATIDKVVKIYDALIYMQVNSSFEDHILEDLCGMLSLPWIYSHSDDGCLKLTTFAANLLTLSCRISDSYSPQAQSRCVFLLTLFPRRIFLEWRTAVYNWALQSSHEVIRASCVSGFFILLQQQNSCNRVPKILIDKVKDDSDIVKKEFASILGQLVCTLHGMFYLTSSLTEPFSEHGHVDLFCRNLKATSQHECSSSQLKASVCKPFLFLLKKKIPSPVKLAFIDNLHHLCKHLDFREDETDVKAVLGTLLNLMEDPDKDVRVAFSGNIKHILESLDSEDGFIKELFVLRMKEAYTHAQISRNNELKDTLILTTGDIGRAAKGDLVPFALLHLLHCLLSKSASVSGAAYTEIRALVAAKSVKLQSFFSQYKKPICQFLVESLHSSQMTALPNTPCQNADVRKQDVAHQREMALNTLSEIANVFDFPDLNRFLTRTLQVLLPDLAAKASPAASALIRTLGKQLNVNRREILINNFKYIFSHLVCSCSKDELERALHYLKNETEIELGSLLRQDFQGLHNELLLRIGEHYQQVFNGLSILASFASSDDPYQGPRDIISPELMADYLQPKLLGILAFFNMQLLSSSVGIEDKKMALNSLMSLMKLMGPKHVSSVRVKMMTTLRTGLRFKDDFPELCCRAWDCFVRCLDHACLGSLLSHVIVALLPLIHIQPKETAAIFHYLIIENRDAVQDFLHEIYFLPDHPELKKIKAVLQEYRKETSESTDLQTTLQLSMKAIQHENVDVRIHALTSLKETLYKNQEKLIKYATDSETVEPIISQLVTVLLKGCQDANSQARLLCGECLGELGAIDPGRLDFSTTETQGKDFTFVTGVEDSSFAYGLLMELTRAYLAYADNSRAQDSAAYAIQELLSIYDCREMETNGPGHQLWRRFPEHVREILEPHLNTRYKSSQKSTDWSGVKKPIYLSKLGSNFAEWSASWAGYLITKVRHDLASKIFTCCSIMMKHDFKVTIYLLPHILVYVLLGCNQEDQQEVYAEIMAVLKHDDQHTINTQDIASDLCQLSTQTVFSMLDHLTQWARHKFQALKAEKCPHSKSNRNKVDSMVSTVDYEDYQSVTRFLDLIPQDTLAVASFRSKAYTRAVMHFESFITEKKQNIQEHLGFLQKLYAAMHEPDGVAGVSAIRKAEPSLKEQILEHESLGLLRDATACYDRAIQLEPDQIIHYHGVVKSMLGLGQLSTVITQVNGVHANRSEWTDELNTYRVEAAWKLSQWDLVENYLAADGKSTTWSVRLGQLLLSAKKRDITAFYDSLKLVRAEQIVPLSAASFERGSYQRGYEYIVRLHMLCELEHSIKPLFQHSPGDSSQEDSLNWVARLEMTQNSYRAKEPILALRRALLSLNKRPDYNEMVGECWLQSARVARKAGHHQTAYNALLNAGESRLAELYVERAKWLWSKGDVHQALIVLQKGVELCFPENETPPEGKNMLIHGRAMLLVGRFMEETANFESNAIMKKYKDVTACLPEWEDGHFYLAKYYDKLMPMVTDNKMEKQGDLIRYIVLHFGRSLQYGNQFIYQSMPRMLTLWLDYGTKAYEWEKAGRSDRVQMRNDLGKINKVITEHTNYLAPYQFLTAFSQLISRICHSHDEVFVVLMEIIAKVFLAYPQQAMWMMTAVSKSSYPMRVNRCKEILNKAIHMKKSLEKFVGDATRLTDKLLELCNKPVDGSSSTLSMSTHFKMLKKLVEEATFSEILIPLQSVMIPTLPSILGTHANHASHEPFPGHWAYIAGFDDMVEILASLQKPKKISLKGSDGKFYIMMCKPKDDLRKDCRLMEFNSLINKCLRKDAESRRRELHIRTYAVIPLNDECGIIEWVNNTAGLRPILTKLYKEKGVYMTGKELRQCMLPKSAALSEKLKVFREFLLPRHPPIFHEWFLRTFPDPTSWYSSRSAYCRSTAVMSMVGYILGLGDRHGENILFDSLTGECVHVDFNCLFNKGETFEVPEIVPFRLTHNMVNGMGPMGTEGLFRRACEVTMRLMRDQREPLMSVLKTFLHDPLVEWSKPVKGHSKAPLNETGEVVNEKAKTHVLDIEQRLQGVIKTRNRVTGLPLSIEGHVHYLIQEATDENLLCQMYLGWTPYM

Structure (SMILES)	IC50 [nM]
C[C@@H]1COCCN1c1cc(N=S2(=O)CCC2)c2cnn(-c3ccn[nH]3)c2n1 [US20250026750, Compound 3]	< 50
C[C@@H]1COCCN1c1cc(N=S(C)(C)=O)c2c(C(F)(F)F)nn(-c3ccn[nH]3)c2n1 [US20250026750, Compound 23]	< 50
C[C@@H]1COCCN1c1cc(N=S2(=O)CCCC2)c2cnn(-c3ccn[nH]3)c2n1 [US20250026750, Compound 4]	< 50
C[C@@H]1COCCN1c1cc(N=S2(=O)CCOCC2)c2cnn(-c3ccn[nH]3)c2n1 [US20250026750, Compound 6]	< 50
C[C@@H]1COCCN1c1cc(N=S(C)(C)=O)c2cnn(-c3ccn[nH]3)c2n1 [US20250026750, Compound 1]	< 50
C[C@@H]1COCCN1c1cc(N=S(C)(C)=O)c2c(CCC(F)(F)F)nn(-c3ccn[nH]3)c2n1 [US20250026750, Compound 24]	< 50
Cc1nn(-c2ccn[nH]2)c2nc(N3CCOC[C@H]3C)cc(N=S(C)(C)=O)c12 [US20250026750, Compound 20]	< 50
C[C@@H]1COCCN1c1cc(N=S(C)(=O)C(C)(C)C)c2cnn(-c3ccn[nH]3)c2n1 (some centres undefined) [US20250026750, Compound 17]	< 50
C[C@@H]1COCCN1c1cc(N=S(C)(C)=O)c2c(C(C)(C)C)nn(-c3cc[nH]n3)c2n1 [US20250026750, Compound 25]	< 50
